Key:
[1] = system: Met mutant Drosophila flies; details: cited from earlier work; for resistance to topical application: Met gene mutation
Drosophila = details: JH analog insecticide; cited from earlier work
[2] = system: Met^3 flies transformed with genomic fragments; experiment: Methoprene resistance test of progeny of Met^3 transformants (rescue of Met phenotype); assay type: in vivo, Drosophila; details: three diagnostic amounts of methoprene
Method: P-element mediated germline transformation was carried out with DNA fragments isolated from phage clones derived from a wild-type genomic library. Genomic fragments were isolated following restriction enzyme digestions of phage obtained from the iso-i strain genomic library. (Tamkun et al. Proc. Natl. Acad. Sci. USA 81:5140 (1984)). Fragments were either subcloned into Bluescript (Stratagene Co., Ca.), then excised with an EcoRI-NotI double digest and subcloned into the pCaSpeR 4 transformation vector (Thummel et al. Drosophila Inform. Serv. 71:150 (1992)), or were subcloned directly into the pCaSpeR 4 vector. Purified plasmids together with pp25.1wc transformation “helper” DNA in a ratio of 2-3:1 were injected into dechorionated ywMet^3 embryos as described. (A. Spradling in Drosophila—A Practical Approach (D. B. Roberts, Ed. IRL, Oxford, 1986, page 175). Go progeny were individually crossed with y w Met^3, and transformants recognized by restoration of eye color ranging from light orange to red. For each DNA fragment, 3-5 transformants from separate Go females were recovered and their progeny tested for methoprene resistance.
Progeny of transformants were tested on three diagnostic amounts of methoprene as described in Wilson, Arch. Insect Biochem. Physiol. 32:641 (1996)). […]

[3] = system: DNA BD of the glucocorticoid receptor fused to the AhR; details: CHO mammalian cells; cited from earlier work
GAL4-AhR construct = details: yeast cells; construct constitutively active without ligand; cited from earlier work
[4] = system: JH cytosolic binding protein; details: cited from earlier work

Compound: COC(=O)/C=C(\C)CC[C@@H]1O[C@@]1(C)CC[C@H]1OC1(C)C [JH bisepoxide]
- resistance to topical application [1]: resistance

Compound: CCOC(=O)NCCOc1ccc(Oc2ccccc2)cc1 [fenoxycarb]
- resistance to topical application [1]: resistance

Compound: COC(C)(C)CCC[C@H](C)C/C=C/C(C)=C/C(=O)OC(C)C [methoprene, [E,E]-1-methoxy-3,7,11-trimethyl-2,4-dodecadienoic acid 1-methylethyl ester]
- toxicity to Drosophila (Drosophila): high toxicity
- resistance to both the toxic and morphogenetic effects ([1]; Met mutant versus wild-type flies): ≤ 100 fold
- resistance to both the toxic and morphogenetic effects conferred by Met^A3 and Met^K17 alleles ([1]; P-element alleles Met^A3 and Met^K17): conferred resistance
- level of methoprene resistance compared with Met^3 ([2]; Met^3 transformants with fragments St-X and K-H): undiminished
- methoprene resistance after transformation ([2]; Met^3 transformed with the 6.234 Kb St-H fragment): resistance was lost

Compound: Clc1cc2c(cc1Cl)Oc1cc(Cl)c(Cl)cc1O2 [dioxin]
- expression of reporter gene linked to a glucocorticoid response element [3]: induced expression of a reporter gene
- transactivation of LacZ reporter gene by GAL4-AhR construct (GAL4-AhR construct): enhanced transactivation

Compound: CC(COc1ccc(Oc2ccccc2)cc1)Oc1ccccn1 (stereo not shown) [pyriproxyfen]
- resistance to topical application [1]: resistance

Compound: COC(=O)/C=C(\C)CC/C=C(\C)CC[C@H]1OC1(C)C [JH III, [R-(E,E)]-9-(3,3-dimethyloxiranyl)-3,7-dimethyl-2,6-nonadienoic acid methyl ester]
- resistance to topical application [1]: resistance
- binding to cytosolic juvenile hormone-binding protein ([4]; Drosophila melanogaster cytosolic protein): saturable, high-affinity binding
- lower binding affinity of JH cytosolic binding protein from Met flies than from Met+ flies ([4]; Met flies versus Met+ flies): 10 fold
